Test results from patent US11529337B2, “Method of treating pain” (VERTEX PHARMACEUTICALS INCORPORATED, priority 2018, dated 2022).

Columns and labels:
[1] = tested on: subjects with pain following bunionectomy; assay: Safety and tolerability evaluations in the bunionectomy study (Example 3)
From the text: Safety evaluations included adverse events, clinical laboratory assessments, clinical evaluation of vital signs, electrocardiograms, and physical examinations.

[2] = tested on: subjects with pain following bunionectomy; assay: Randomized, double-blind, placebo-controlled study of efficacy in subjects with pain following bunionectomy (Example 3); type: in vivo, human
Experimental: A randomized, double-blind, placebo-controlled, 3-arm, parallel-design study to evaluate the effect of Compound 1 on acute surgical pain was conducted. Bunionectomy is a well-established, multi-dose, surgical, acute pain model. A randomized, double-blind study design was selected to avoid observer bias and reduce symptoms or outcomes arising from the subjects' knowledge of treatment. A parallel design was considered most appropriate given the acute nature of bunionectomy surgery.
Male and female patients between the ages of 18 and 65 years (inclusive) with pain that is ≥4 on an 11-point Numeric Pain Rating Scale (NPRS) and is moderate or severe on the Verbal Categorical Rating Scale (VRS) after bunionectomy.
Investigational Drug: Compound 1. The investigational drug was administered orally in 250 mg capsules, prepared as described in Example 2. The investigational drug was administered every 12 hours (q12 h). […]
On the 11-point NPRS, a score of 0 denoted no pain, and a score of 10 denoted the worst pain intensity imaginable. […] Pain intensity also was recorded on the NPRS immediately before each administration of rescue medication. Pain intensity scores that were collected within 4 hours after a dose of rescue medication were taken as missing, and the missing values were imputed as the intensity recorded immediately before the administration of rescue medication. […]

[3] = tested on: patients with chronic pain caused by small fiber neuropathy; assay: Randomized, double-blind, placebo-controlled 6-week study in patients with chronic pain caused by small fiber neuropathy (Example 5); type: in vivo, human
Experimental: A randomized, double-blind, placebo-controlled, 6-week study that evaluated treatment with Compound 1 (Treatment Arm) or placebo (Placebo Arm) in patients with chronic pain caused by small fiber neuropathy was conducted.
Males and females between the ages of 18 and 80 years, inclusive, with small fiber neuropathy.
Compound 1 was administered orally in 250 mg capsules, prepared as described in Example 2.
The study included a 7-day run-in period, followed a 6-week treatment period. The subjects were randomized to a Placebo Arm (43 subjects) and a Treatment Arm (46 subjects) between the run-in period and the treatment period.
During the run-in period, subjects reported their average pain and sleep interference to establish a baseline NRS pain score and DSIS score.
During the treatment period, Compound 1 was administered to the subjects in the Treatment Arm every 24 hours (q24 h) in a dose of 1250 mg. Subjects in the Placebo Arm received placebo capsules.
11-point Numeric Rating Scale (NRS). Pain intensity was evaluated using an 11-point NRS. The 11-point scale ranged from 0 (no pain) to 10 (worst imaginable pain). From Day −7 through Week 6, subjects reported their average daily pain during the last 24 hours on the NRS via electronic diary.
Daily Sleep Interference Scale (DSIS). Subjects reported pain interference with sleep using an 11-point scale ranging from 0 (none) to 10 (severe). […]

Cc1cc(F)ccc1Oc1cc(C(F)(F)F)ccc1C(=O)Nc1ccn(COP(=O)(O)O)c(=O)c1 [Compound 1, (4-(2-(4-fluoro-2-methylphenoxy)-4-(trifluoromethyl)benzamido)-2-oxopyridin-1(2H)-yl)methyl dihydrogen phosphate]
Tolerability, in words ([1]; bunionectomy study): generally well tolerated
Gastrointestinal adverse events ([1]; share of subjects in the arm): 13%
Relief of acute pain compared to placebo (SPID24), in words ([2]; Investigational Arm versus placebo): statistically significant relief of acute pain compared to placebo
Subjects who discontinued due to lack of efficacy ([2]; number (percentage) of subjects assigned to the arm): 6 (7.5%)
Subjects with ≥30% reduction in weekly average of daily pain intensity on NRS ([3]; Week 6, total = subjects with data at Week 6): 45.0% (18/40)
Treatment difference in NRS pain intensity versus placebo at Week 1 ([3]; observed as early as Week 1): greater than 1 point
